Where a SMILES comes first, the peptide text is derived from it.
Assays:
Assay in all cases: biochemical
Type in all cases: binding
HLA B*0801 = HLA B*0801 (Homo sapiens, UniProt P01889, A93T/A95T/D138N/E176V/E187T/K202T/Q94N/R180D/S35A/V36M/Y33D/Y91F)
HLA A*3201 = HLA A*3201 (Homo sapiens, UniProt P04439, A270S/D101S/D185E/E176V/E277Q/F133L/G103R/G107R/G231S/H175R/I121M/I218V/I322F/K168Q/L105A/L300P/L318F/M331R/P208A/P217A/Q94H/R106L/R138Q/S129P/T104I/T323A/T345S/V100E/V321M/V358M)
HLA B*1501 = HLA B*1501 (Homo sapiens, UniProt P01889, A329T/A93T/A95T/C349S/D201E/D98Y/E187L/E204Q/E69M/E70A/K202T/N87E/Q94N/R155S/R180W/S121R/S35A/S48A/V306I/V36M/Y140S/Y91S)
HLA A*3001 = HLA A*3001 (Homo sapiens, UniProt P04439, D140H/D185E/E176W/F33S/G80R/H175R/K168Q/R138E/R41S)
HLA B*1503 = HLA B*1503 (Homo sapiens, UniProt P01889, A329T/A93T/A95T/C349S/D201E/D98Y/E187L/E204Q/K202T/N87E/Q94N/R155S/R180L/S121R/S35A/V306I/V36M/Y140S/Y91S)

Sequence of HLA A*3001 (P04439 25-365 limits assumed, stated change not applied): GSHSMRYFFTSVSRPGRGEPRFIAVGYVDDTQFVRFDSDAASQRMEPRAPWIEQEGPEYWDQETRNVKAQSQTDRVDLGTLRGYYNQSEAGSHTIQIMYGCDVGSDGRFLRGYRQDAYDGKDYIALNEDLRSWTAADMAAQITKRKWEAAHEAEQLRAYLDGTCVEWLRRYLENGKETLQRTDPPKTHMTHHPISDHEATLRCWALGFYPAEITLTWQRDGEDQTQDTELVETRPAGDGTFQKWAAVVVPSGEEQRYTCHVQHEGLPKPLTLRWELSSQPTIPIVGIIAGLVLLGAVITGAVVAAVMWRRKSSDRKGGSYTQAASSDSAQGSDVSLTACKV

| Compound | IC50 (HLA B*0801) [nM] | IC50 (HLA A*3201) [nM] | IC50 (HLA B*1501) [nM] | IC50 (HLA A*3001) [nM] | IC50 (HLA B*1503) [nM] |
| --- | --- | --- | --- | --- | --- |
| CSCC[C@H](NC(=O)[C@@H](NC(=O)[C@@H](N)CCCCN)[C@@H](C)O)C(=O)N[C@@H](C)C(=O)N[C@H](C(=O)N[C@H](C(=O)N[C@@H](Cc1ccc(O)cc1)C(=O)N[C@@H](CCC(=O)O)C(=O)N[C@@H](CC(C)C)C(=O)O)[C@@H](C)O)C(C)C [3102.0293] (H-KTMAVTYEL-OH) | 19 | 0.58 | 5.5 |  |  |
| CC(C)C[C@H](NC(=O)[C@H](CCCCN)NC(=O)[C@H](CCCCN)NC(=O)[C@H](Cc1ccc(O)cc1)NC(=O)[C@H](CC(C)C)NC(=O)[C@@H](NC(=O)[C@@H](N)Cc1ccc(O)cc1)[C@@H](C)O)C(=O)N[C@@H](CO)C(=O)N[C@@H](Cc1ccccc1)C(=O)O [3102.0333] (H-YTLYKKLSF-OH) | 16 | 194 | 14 | 23 |  |
| CC[C@H](C)[C@H](NC(=O)[C@H](CO)NC(=O)[C@H](C)NC(=O)[C@@H](NC(=O)[C@@H](NC(=O)[C@H](CC(N)=O)NC(=O)[C@H](CCCNC(=N)N)NC(=O)[C@@H](NC(=O)[C@@H](N)CCCNC(=N)N)C(C)C)[C@@H](C)CC)[C@@H](C)CC)C(=O)O [3102.0367] (H-RVRNIIASI-OH) | 22 | 1 |  | 0.1 |  |
| CC(C)C[C@H](NC(=O)[C@H](CC(C)C)NC(=O)[C@@H](N)CCCCN)C(=O)N[C@@H](CO)C(=O)N[C@@H](Cc1c[nH]cn1)C(=O)N[C@@H](Cc1ccccc1)C(=O)N[C@@H](Cc1ccc(O)cc1)C(=O)N1CCC[C@H]1C(=O)N[C@@H](C)C(=O)O [3102.0665] (H-KLLSHFYPA-OH) | 81 | 129 | 39 |  | 5.4 |
| CC[C@H](C)[C@H](NC(=O)[C@@H](N)CCCNC(=N)N)C(=O)N[C@@H](CCCNC(=N)N)C(=O)N[C@@H](CCCNC(=N)N)C(=O)N[C@@H](Cc1ccccc1)C(=O)N[C@@H](CCCNC(=N)N)C(=O)N[C@@H](CCCNC(=N)N)C(=O)N1CCC[C@H]1C(=O)N[C@@H](CCSC)C(=O)O [3102.0681] (H-RIRRFRRPM-OH) | 8.9 |  | 36 | 4.4 | 30 |
| CC[C@H](C)[C@H](NC(=O)[C@H](Cc1c[nH]cn1)NC(=O)[C@H](CS)NC(=O)[C@H](CC(C)C)NC(=O)[C@H](CC(C)C)NC(=O)[C@@H](N)CC(N)=O)C(=O)N[C@@H](Cc1ccc(O)cc1)C(=O)N[C@@H](CO)C(=O)N[C@@H](CC(C)C)C(=O)O [3102.0692] (H-NLLCHIYSL-OH) | 0.31 | 232 |  |  |  |
| CSCC[C@H](NC(=O)[C@H](CC(C)C)NC(=O)[C@@H](N)CCSC)C(=O)N[C@@H](CC(N)=O)C(=O)N[C@@H](Cc1c[nH]cn1)C(=O)N[C@H](C(=O)N[C@@H](C)C(=O)N[C@@H](CC(N)=O)C(=O)N[C@@H](Cc1ccccc1)C(=O)O)C(C)C [3102.0720] (H-MLMNHVANF-OH) | 3.3 | 8.3 |  |  |  |
| CC[C@H](C)[C@H](NC(=O)[C@@H](NC(=O)[C@H](Cc1c[nH]cn1)NC(=O)[C@H](CCCNC(=N)N)NC(=O)[C@H](CC(C)C)NC(=O)[C@@H](NC(=O)[C@H](Cc1ccccc1)NC(=O)[C@H](CCSC)NC(=O)[C@@H](N)CO)[C@@H](C)O)[C@@H](C)CC)C(=O)O [3102.0752] (H-SMFTLRHII-OH) | 1.8 | 83 |  |  |  |
| CC[C@H](C)[C@H](NC(=O)[C@H](CCCNC(=N)N)NC(=O)[C@H](Cc1ccc(O)cc1)NC(=O)[C@H](CCSC)NC(=O)[C@H](CO)NC(=O)[C@@H](N)CCCNC(=N)N)C(=O)N1CCC[C@H]1C(=O)N1CCC[C@H]1C(=O)N[C@@H](Cc1ccccc1)C(=O)O [3102.0766] (H-RSMYRIPPF-OH) | 158 | 0.73 |  |  |  |
| CC[C@H](C)[C@H](NC(=O)[C@H](CCCNC(=N)N)NC(=O)[C@H](Cc1c[nH]cn1)NC(=O)[C@H](CS)NC(=O)[C@@H](NC(=O)[C@@H](N)CCSC)C(C)C)C(=O)N[C@@H](CC(C)C)C(=O)N[C@H](C(=O)N[C@@H](Cc1ccc(O)cc1)C(=O)O)[C@@H](C)O [3102.0849] (H-MVCHRILTY-OH) | 220 |  | 70 |  | 28 |
| CSCC[C@H](NC(=O)[C@@H](N)CC(C)C)C(=O)N[C@@H](Cc1ccccc1)C(=O)N[C@@H](CCCCN)C(=O)N[C@@H](Cc1c[nH]cn1)C(=O)N[C@@H](CC(C)C)C(=O)N[C@@H](CC(C)C)C(=O)N[C@@H](Cc1c[nH]cn1)C(=O)N1CCC[C@H]1C(=O)O [3102.0908] (H-LMFKHLLHP-OH) | 1 |  | 103 |  | 26 |
| CC(C)C[C@H](NC(=O)[C@@H]1CCCN1C(=O)[C@H](CO)NC(=O)[C@H](Cc1ccccc1)NC(=O)[C@H](Cc1ccc(O)cc1)NC(=O)[C@H](CCCCN)NC(=O)[C@H](C)NC(=O)[C@@H](NC(=O)[C@H](C)N)C(C)C)C(=O)O [3102.0978] (H-AVAKYFSPL-OH) | 190 | 283 | 16 |  |  |
| CC[C@H](C)[C@H](NC(=O)[C@@H](NC(=O)[C@H](CO)NC(=O)[C@H](CO)NC(=O)[C@H](CO)NC(=O)[C@H](CCCCN)NC(=O)[C@H](C)NC(=O)[C@@H](NC(=O)[C@@H](N)CC(C)C)[C@@H](C)CC)C(C)C)C(=O)O [3102.1021] (H-LIAKSSSVI-OH) | 13 |  | 23 | 11 |  |
| CC(C)C[C@H](NC(=O)[C@@H](N)CC(C)C)C(=O)N[C@@H](Cc1ccccc1)C(=O)N[C@@H](Cc1ccc(O)cc1)C(=O)N[C@H](C(=O)N[C@@H](CCCNC(=N)N)C(=O)N[C@@H](Cc1c[nH]cn1)C(=O)N[C@@H](CCCNC(=N)N)C(=O)N[C@@H](Cc1ccccc1)C(=O)O)[C@@H](C)O [3102.1058] (H-LLFYTRHRF-OH) | 46 | 2.6 | 0.85 |  | 0.21 |
| CSCC[C@H](NC(=O)[C@@H](N)CO)C(=O)N[C@@H](CCCCN)C(=O)N[C@H](C(=O)N[C@H](C(=O)N[C@@H](Cc1ccccc1)C(=O)N[C@@H](CCC(N)=O)C(=O)N[C@H](C(=O)N[C@@H](Cc1ccccc1)C(=O)O)C(C)C)C(C)C)[C@@H](C)O [3102.1083] (H-SMKTVFQVF-OH) | 179 |  | 1.6 |  | 3.8 |
| CC[C@H](C)[C@H](NC(=O)[C@H](Cc1ccccc1)NC(=O)[C@H](CCCNC(=N)N)NC(=O)[C@H](CCC(=O)O)NC(=O)[C@@H](NC(=O)[C@H](CCSC)NC(=O)[C@@H](N)Cc1ccc(O)cc1)[C@@H](C)CC)C(=O)N[C@@H](CO)C(=O)N[C@@H](Cc1ccccc1)C(=O)O [3102.1085] (H-YMIERFISF-OH) | 0.35 |  | 0.11 |  | 0.046 |
| CC[C@H](C)[C@H](NC(=O)[C@@H](NC(=O)[C@H](CC(N)=O)NC(=O)[C@H](CCSC)NC(=O)[C@@H](N)CO)[C@@H](C)O)C(=O)N[C@@H](CCCCN)C(=O)N[C@@H](CCC(N)=O)C(=O)N[C@@H](CO)C(=O)N[C@@H](Cc1ccccc1)C(=O)O [3102.1144] (H-SMNTIKQSF-OH) | 450 | 293 |  |  | 17 |
| CSCC[C@H](NC(=O)[C@@H](NC(=O)[C@H](CO)NC(=O)CNC(=O)[C@H](CC(=O)O)NC(=O)[C@@H](NC(=O)[C@@H](NC(=O)[C@H](CCSC)NC(=O)[C@@H](N)Cc1ccc(O)cc1)C(C)C)C(C)C)C(C)C)C(=O)O [3102.1153] (H-YMVVDGSVM-OH) | 390 |  | 2.5 |  | 1 |
